Series [1] is described as follows: Hygroscopicity test (Karl-Fischer titrator). As to conditions: 40° C., relative humidity 75%. In kind it is physicochemical.
For series [2] the following is noted: accelerated condition for 28 days; in words.
Description: Particularly, each imatinib acid addition salt was stored in a sealed state under an accelerated condition (a temperature of 40° C. and a relative humidity of 75%), and after 0 (zero), 3, 7, 14 and 28 days, the remaining rate of the active ingredient was analyzed with a high performance liquid chromatography (HPLC).
Series [3] relates to colorectal adenocarcinoma cells (HT29). The series can be described thus: Cytotoxicity test (MTT). As to conditions: for absorbance value based on 100% of the absorbance value for the control: HT29, 72 hours, MTT, 570 nm, mean of n=3. Format: cell-based. How it is done: Using a medium containing 10% of fetal bovine serum (FBS), Rosewell Park Memorial Institute medium (RPMI) and 1% of penicillin/streptomycin, a 2×10^5 cells/ml suspension of colorectal adenocarcinoma cells (HT29) was prepared. The prepared suspension was seeded into each well of […] and cultured for 24 hours. Each sample was added to three wells and cultured (n=3).
The medium was removed from each well after 24 hours and the wells were washed with phosphate buffered saline (PBS). […] 100 µl of each prepared solution was seeded into the wells and cultured at 37° C. for 72 hours.
10 μl of 3-(4,5-dimethylthiazol-2-yl)-2,5-diphenyltetrazolium bromide (MTT) was added to each sample and cultured for 4 hours. The absorbance of the solution was measured at 570 nm using Enzyme-linked immunosorbent assay (ELISA).

A further series has as its system rats. As to conditions: cited from earlier work.

As for `CS(=O)(=O)O.Cc1ccc(NC(=O)c2ccc(CN3CCN(C)CC3)cc2)cc1Nc1nccc(-c2cccnc2)n1` [Imatinib Methanesulfonate, reference compound], the “amount of moisture contained in the compound” value (“amount of moisture contained” for short) was determined as 0.89 weight % in series [1] (2 hours); 0.86 weight % in series [1] (8 hours); 0.84 weight % in series [1] (24 hours); 1.11 weight % in series [1] (3 days); 0.83 weight % in series [1] (Initial).
As for `Cc1ccc(NC(=O)c2ccc(CN3CCN(C)CC3)cc2)cc1Nc1nccc(-c2cccnc2)n1` [Imatinib dichloroacetate (crystalline form I)], the “stability compared with imatinib methanesulfonate (β crystalline form)” value in series [2] is “same or higher level of stability”. The “anti-cancer effects compared with imatinib methanesulfonate (β crystalline form)” value in series [3] (HT29 cytotoxicity, in words) was “more potent anti-cancer effects”. For the same compound, the “amount of moisture contained” value is 1.14 weight % in series [1] (2 hours); 1.18 weight % in series [1] (8 hours); 1.14 weight % in series [1] (24 hours); 1.26 weight % in series [1] (3 days); 1.14 weight % in series [1] (Initial).
As for `Cc1ccc(NC(=O)c2ccc(CN3CCN(C)CC3)cc2)cc1Nc1nccc(-c2cccnc2)n1` [Imatinib dichloroacetate (crystalline form II)], the “stability compared with imatinib methanesulfonate (β crystalline form)” value in series [2] was “same or higher level of stability”. Further, the “amount of moisture contained” value in series [1] (2 hours) came out at 0.83 weight %; in series [1] (8 hours), 0.87 weight %; in series [1] (24 hours) it was 0.86 weight %; in series [1] (3 days) it was 0.95 weight %; in series [1] (Initial), 0.85 weight %.
Consider `O=C(O)C(Cl)Cl` [dichloroacetic acid], for which the “LD50 (the lethal dose causing death in 50% of rats on oral administration)” value with rats is 2,820 mg/kg. The results for the “absorbance value based on 100% of the absorbance value for the control” value in series [3] (1 nM), in series [3] (10 nM) and in series [3] (100 nM) were 101.2%, 98.6% and 95.2%, respectively.

The values above are taken from patent US20120295917A1, “IMATINIB DICHL[…] ANTI-CANCER AGENT COMPRISING THE SAME” (CELLTRION PHARM, INC., priority 2009, published 2012).
